Measurements from the NIST ThermoML archive (doi:10.1021/je500381c).

Experiment: xn = mol fraction of the nth substance listed
Conditions: for mass density / viscosity: 100 kPa, Liquid; for mass density: Vibrating tube method; for surface tension liquid-gas: Drop volume

CC12CC3CC(C)(C1)CC(C)(C3)C2 [1,3,5-trimethyladamantane] + CCCCCCCO
Conditions | mass density [kg/m3] | surface tension liquid-gas [mN/m] | viscosity [mPa·s]
293.15 K, x2 = 0 | 887.48 | – | 2.601
293.15 K, x2 = 0.1001 | 882.47 | – | 2.626
293.15 K, x2 = 0.2001 | 877.46 | – | 2.775
293.15 K, x2 = 0.3002 | 872.11 | – | 2.97
293.15 K, x2 = 0.4004 | 866.49 | – | 3.242
293.15 K, x2 = 0.5001 | 860.53 | – | 3.5
293.15 K, x2 = 0.6002 | 854.11 | – | 4.051
293.15 K, x2 = 0.7001 | 847.23 | – | 4.645
293.15 K, x2 = 0.7999 | 839.77 | – | 5.371
293.15 K, x2 = 0.9002 | 831.44 | – | 6.221
298.15 K, x2 = 0 | 883.99 | 26.17 | 2.338
298.15 K, x2 = 0.1001 | 878.9 | 26.19 | 2.349
298.15 K, x2 = 0.2001 | 873.88 | 26.22 | 2.469
298.15 K, x2 = 0.3002 | 868.52 | 26.26 | 2.632
298.15 K, x2 = 0.4004 | 862.91 | 26.32 | 2.854
298.15 K, x2 = 0.5001 | 856.94 | 26.34 | 3.131
298.15 K, x2 = 0.6002 | 850.53 | 26.36 | 3.51
298.15 K, x2 = 0.7001 | 843.66 | 26.32 | 3.99
298.15 K, x2 = 0.7999 | 836.22 | 26.3 | 4.567
298.15 K, x2 = 0.9002 | 827.93 | 26.29 | 5.229
303.15 K, x2 = 0 | 880.47 | – | 2.118
303.15 K, x2 = 0.1001 | 875.31 | – | 2.114
303.15 K, x2 = 0.2001 | 870.27 | – | 2.212
303.15 K, x2 = 0.3002 | 864.91 | – | 2.35
303.15 K, x2 = 0.4004 | 859.29 | – | 2.533
303.15 K, x2 = 0.5001 | 853.32 | – | 2.758
303.15 K, x2 = 0.6002 | 846.91 | – | 3.066
303.15 K, x2 = 0.7001 | 840.05 | – | 3.457
303.15 K, x2 = 0.7999 | 832.63 | – | 3.924
303.15 K, x2 = 0.9002 | 824.38 | – | 4.464
308.15 K, x2 = 0 | 876.94 | – | 1.93
308.15 K, x2 = 0.1001 | 871.72 | – | 1.911
308.15 K, x2 = 0.2001 | 866.65 | – | 1.992
308.15 K, x2 = 0.3002 | 861.27 | – | 2.108
308.15 K, x2 = 0.4004 | 855.65 | – | 2.261
308.15 K, x2 = 0.5001 | 849.68 | – | 2.444
308.15 K, x2 = 0.6002 | 843.28 | – | 2.699
308.15 K, x2 = 0.7001 | 836.41 | – | 3.015
308.15 K, x2 = 0.7999 | 829.02 | – | 3.396
308.15 K, x2 = 0.9002 | 820.8 | – | 3.841
313.15 K, x2 = 0 | 873.4 | – | 1.765
313.15 K, x2 = 0.1001 | 868.1 | – | 1.737
313.15 K, x2 = 0.2001 | 863 | – | 1.802
313.15 K, x2 = 0.3002 | 857.62 | – | 1.899
313.15 K, x2 = 0.4004 | 851.98 | – | 2.027
313.15 K, x2 = 0.5001 | 846.01 | – | 2.178
313.15 K, x2 = 0.6002 | 839.62 | – | 2.387
313.15 K, x2 = 0.7001 | 832.76 | – | 2.648
313.15 K, x2 = 0.7999 | 825.37 | – | 2.957
313.15 K, x2 = 0.9002 | 817.19 | – | 3.327
318.15 K, x2 = 0 | 869.86 | – | 1.621
318.15 K, x2 = 0.1001 | 864.47 | – | 1.585
318.15 K, x2 = 0.2001 | 859.34 | – | 1.636
318.15 K, x2 = 0.3002 | 853.95 | – | 1.719
318.15 K, x2 = 0.4004 | 848.3 | – | 1.826
318.15 K, x2 = 0.5001 | 842.32 | – | 1.952
318.15 K, x2 = 0.6002 | 835.93 | – | 2.124
318.15 K, x2 = 0.7001 | 829.07 | – | 2.338
318.15 K, x2 = 0.7999 | 821.7 | – | 2.593
318.15 K, x2 = 0.9002 | 813.54 | – | 2.899
323.15 K, x2 = 0 | 866.31 | – | 1.494
323.15 K, x2 = 0.1001 | 860.82 | – | 1.452
323.15 K, x2 = 0.2001 | 855.66 | – | 1.494
323.15 K, x2 = 0.3002 | 850.25 | – | 1.561
323.15 K, x2 = 0.4004 | 844.59 | – | 1.652
323.15 K, x2 = 0.5001 | 838.61 | – | 1.756
323.15 K, x2 = 0.6002 | 832.21 | – | 1.899
323.15 K, x2 = 0.7001 | 825.35 | – | 2.049
323.15 K, x2 = 0.7999 | 817.99 | – | 2.287
323.15 K, x2 = 0.9002 | 809.87 | – | 2.541
328.15 K, x2 = 0 | 862.76 | – | 1.384
328.15 K, x2 = 0.1001 | 857.16 | – | 1.335
328.15 K, x2 = 0.2001 | 851.96 | – | 1.368
328.15 K, x2 = 0.3002 | 846.53 | – | 1.424
328.15 K, x2 = 0.4004 | 840.86 | – | 1.5
328.15 K, x2 = 0.5001 | 834.86 | – | 1.587
328.15 K, x2 = 0.6002 | 828.46 | – | 1.707
328.15 K, x2 = 0.7001 | 821.6 | – | 1.855
328.15 K, x2 = 0.7999 | 814.26 | – | 2.029
328.15 K, x2 = 0.9002 | 806.15 | – | 2.239
333.15 K, x2 = 0 | 859.2 | – | 1.284
333.15 K, x2 = 0.1001 | 853.48 | – | 1.232
333.15 K, x2 = 0.2001 | 848.24 | – | 1.257
333.15 K, x2 = 0.3002 | 842.78 | – | 1.303
333.15 K, x2 = 0.4004 | 837.09 | – | 1.367
333.15 K, x2 = 0.5001 | 831.09 | – | 1.44
333.15 K, x2 = 0.6002 | 824.68 | – | 1.54
333.15 K, x2 = 0.7001 | 817.82 | – | 1.663
333.15 K, x2 = 0.7999 | 810.48 | – | 1.808
333.15 K, x2 = 0.9002 | 802.4 | – | 1.984
